Reference: BindingDB's records for patent US20250034159 (Oric Pharmaceuticals, 2025)

Experiments:
[1] = biological target: T1, Epidermal growth factor receptor [DEL746-750,C797S] (Homo sapiens, UniProt P00533, C797S/DEL746-750); assay: Biochemical Assay Against EGFR Exon 19 Deletion/C797S Protein (EGFR d19/CS)
T1 construct: gene EGFR
Procedure: (§1) In wells A1 and A24, were added 12 μL of DMSO. […] To a well in Row A were added 12 μL of each 10 mM test compound stock (100% DMSO). […] The final intermediate dilution plate contained 4×16-point compound serial dilutions in assay buffer. The DMSO concentration was 10%. The intermediate compound dilution plate was transferred to the Bravo and the “5 uL dispense into ARP.pro” protocol was run. To the black low volume assay ready plates, were added 5 μL of 40 uM Phosphosens peptide sensor/4 mM ATP working solution to each well. […] To column 24, was added 10 μL of assay buffer. The final DMSO concentration was 2.5%.

[2] = biological target: Epidermal growth factor receptor [L858R,C797S] (Human, UniProt P00533, C797S/L858R); assay: Biochemical Assay Against EGFR L858R/C797S Protein (EGFR LR/CS)
Sequence of Epidermal growth factor receptor [L858R,C797S] (P00533 25-1210 C797S/L858R limits assumed): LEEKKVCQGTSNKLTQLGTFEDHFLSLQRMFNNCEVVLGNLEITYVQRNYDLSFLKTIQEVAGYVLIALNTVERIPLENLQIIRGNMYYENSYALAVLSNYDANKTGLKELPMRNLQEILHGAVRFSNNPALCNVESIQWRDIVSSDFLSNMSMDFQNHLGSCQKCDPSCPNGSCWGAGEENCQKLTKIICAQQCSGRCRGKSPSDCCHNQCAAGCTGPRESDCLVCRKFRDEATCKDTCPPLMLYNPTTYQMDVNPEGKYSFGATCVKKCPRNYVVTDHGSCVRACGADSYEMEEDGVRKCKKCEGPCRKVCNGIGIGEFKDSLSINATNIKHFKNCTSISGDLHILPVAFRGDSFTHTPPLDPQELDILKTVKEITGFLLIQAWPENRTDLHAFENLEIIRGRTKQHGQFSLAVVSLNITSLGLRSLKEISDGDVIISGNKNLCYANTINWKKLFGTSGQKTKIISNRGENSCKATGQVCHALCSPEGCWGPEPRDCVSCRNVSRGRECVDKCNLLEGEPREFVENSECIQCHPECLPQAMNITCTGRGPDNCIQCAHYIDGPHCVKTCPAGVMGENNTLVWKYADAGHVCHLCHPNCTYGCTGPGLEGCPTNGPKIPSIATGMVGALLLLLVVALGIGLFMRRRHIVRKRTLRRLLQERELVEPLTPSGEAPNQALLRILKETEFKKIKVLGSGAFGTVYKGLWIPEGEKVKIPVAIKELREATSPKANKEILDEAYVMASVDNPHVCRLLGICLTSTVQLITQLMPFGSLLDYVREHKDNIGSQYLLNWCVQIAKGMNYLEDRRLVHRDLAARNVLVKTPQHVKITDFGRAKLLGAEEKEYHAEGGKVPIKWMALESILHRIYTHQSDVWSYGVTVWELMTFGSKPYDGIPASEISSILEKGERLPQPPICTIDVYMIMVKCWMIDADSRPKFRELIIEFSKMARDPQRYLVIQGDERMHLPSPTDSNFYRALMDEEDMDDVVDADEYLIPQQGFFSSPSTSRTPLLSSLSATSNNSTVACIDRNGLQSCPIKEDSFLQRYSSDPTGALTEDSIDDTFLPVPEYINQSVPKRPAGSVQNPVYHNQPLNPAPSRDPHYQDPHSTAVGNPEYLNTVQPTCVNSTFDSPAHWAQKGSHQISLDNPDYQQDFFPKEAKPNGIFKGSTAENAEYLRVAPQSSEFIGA
Procedure: as §1

T1 sequence (P00533 with tags, fused parts or gaps C797S/DEL746-750 limits assumed): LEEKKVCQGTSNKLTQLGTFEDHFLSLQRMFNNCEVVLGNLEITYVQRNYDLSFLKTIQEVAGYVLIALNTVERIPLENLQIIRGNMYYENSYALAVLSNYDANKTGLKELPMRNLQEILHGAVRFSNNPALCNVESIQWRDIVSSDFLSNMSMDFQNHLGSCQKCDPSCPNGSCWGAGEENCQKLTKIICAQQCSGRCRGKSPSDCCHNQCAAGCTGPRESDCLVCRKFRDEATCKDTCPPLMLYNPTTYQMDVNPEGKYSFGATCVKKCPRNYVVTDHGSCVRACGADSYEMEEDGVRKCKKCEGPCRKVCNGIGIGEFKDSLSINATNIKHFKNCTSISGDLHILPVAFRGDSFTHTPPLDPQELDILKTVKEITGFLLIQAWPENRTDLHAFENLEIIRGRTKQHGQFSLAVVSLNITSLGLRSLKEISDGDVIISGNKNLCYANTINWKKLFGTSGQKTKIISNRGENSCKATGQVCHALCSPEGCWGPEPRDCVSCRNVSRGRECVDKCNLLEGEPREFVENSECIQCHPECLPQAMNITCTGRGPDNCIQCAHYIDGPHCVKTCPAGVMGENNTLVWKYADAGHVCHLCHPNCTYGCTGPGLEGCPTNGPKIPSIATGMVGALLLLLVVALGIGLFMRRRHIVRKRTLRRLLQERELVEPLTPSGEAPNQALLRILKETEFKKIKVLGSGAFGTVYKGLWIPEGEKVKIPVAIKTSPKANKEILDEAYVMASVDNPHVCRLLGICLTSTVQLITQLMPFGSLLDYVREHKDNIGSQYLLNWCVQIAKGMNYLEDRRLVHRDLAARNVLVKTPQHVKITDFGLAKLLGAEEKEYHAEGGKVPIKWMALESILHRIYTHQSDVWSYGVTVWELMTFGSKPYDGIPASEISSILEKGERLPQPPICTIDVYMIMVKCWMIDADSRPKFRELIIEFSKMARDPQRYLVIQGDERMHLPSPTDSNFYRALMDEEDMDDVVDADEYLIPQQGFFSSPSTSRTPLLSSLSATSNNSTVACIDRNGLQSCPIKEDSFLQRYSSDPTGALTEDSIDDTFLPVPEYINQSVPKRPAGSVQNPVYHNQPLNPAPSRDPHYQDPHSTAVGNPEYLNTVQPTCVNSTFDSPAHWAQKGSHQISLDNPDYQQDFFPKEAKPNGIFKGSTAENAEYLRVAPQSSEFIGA

| IC50 [1] | IC50 [2] | SMILES |
| --- | --- | --- |
| 8.54 nM | 6.32 nM | O=S1(=O)CCC(n2cc(-c3ncnc4oc(-c5ccccc5)cc34)c(-c3ccc(F)cc3)n2)CC1 [US20250034159, Example 83] |
| 2.41 nM | – | Fc1ccc(-c2nn(CCOC(F)(F)F)cc2-c2ncnc3oc(-c4ccccc4)cc23)cc1 [US20250034159, Example 144] |
| 0.57 nM | – | Fc1ccc(-c2nn(CCC(F)F)cc2-c2ccnc3oc(-c4ccccc4)cc23)cc1 [US20250034159, Example 157] |
| 0.42 nM | – | O=S1(=O)CC(n2cc(-c3ncnc4oc(C5=CCN(S(=O)(=O)C6CC6)CC5)cc34)c(-c3ccc(F)cc3)n2)C1 [US20250034159, Example 177] |
